Results taken from patent publication US10238702B2, “Pharmaceutical composition, preparation method therefor and use thereof” (SICHUAN JIUZHANG BIOLOGICAL SCIENCE AND TECHNOLOGY CO., LTD, priority 2013, dated 2019).
Marks after values point to notes of the source that are not given here.

Legend:
[1] = system: mouse macrophages; test: Carbon granules clearance test; assay type: in vivo, Kunming mice; details: once per day for four weeks, 300 mg/kg (Mannatide 20 mg/kg); for α value (X ± SD): corrected phagotrophic index; for K value (X ± SD): Indian ink via vena caudalis, blood at 1 and 5 min
Protocol: Kunming mice were randomly divided into seven groups according to gender and body weight, with 10 mice in each group. As the dose design in Table 14, all groups were administrated once per day at a dose of 0.4 ml/20 g for successive four weeks. Mice were weighed for two times per week, to adjust the drug dosage. One hour after final administration, each mouse in each group was injected with Indian ink [(1:4)0.1 ml·10 g^−1] via vena caudalis. […] After animals were sacrificed by cervical dislocation, liver and spleen were collected and weighed, to calculate the phagotrophic index K=(log OD^1−log OD2)/(t2−t1) and correct the phagotrophic index α=[body weight/(liver weight+spleen weight)]×K^1/3.

[2] = system: oxygen radicals; test: Metabolism of in vivo oxygen radicals (serum SOD activity, MDA content); parameters: species or system C57BL/6 mice; details: blood serum, intragastric once per day for four weeks, 300 mg/kg (IFNa-2b 300 0000 IU)
Protocol: Experimental methods: C57BL/6 mice were randomly divided to eight groups as body weight, with 10 mice in each group. According to the dose design in Table 14, all groups received one intragastric administration per day at a dose of 0.4 ml/20 g for successive four weeks. Mice were weighed for two times per week, to adjust the drug dosage. On the last day of experiment, blood samples were drawn from femoral artery of animals and centrifuged to collect blood serum. Using TBA colorimetric method and xanthine oxidase method, application of sample was performed according to procedures of kit instructions, and absorbance values were measured at wavelengths of 532 nm and 550 nm using UV2300 Ultraviolet spectrophotometer. MDA content and SOD activity were calculated, respectively.

[3] = system: mouse peritoneal macrophages; test: Phagocytosis test of chicken red blood cell; assay type: in vivo, Kunming mice; details: intragastric once per day for four weeks, 300 mg/kg (Mannatide 20 mg/kg); for Phagotrophic percentage (%, X ± SD): chicken red blood cells phagocytized by 100 macrophages
Protocol: Kunming mice were randomly divided into seven groups according to gender and body weight, with 12 mice in each group. As the dose design, all groups received one intragastric administration per day at a dose of 0.4 ml/20 g for successive four weeks. Mice were weighed for two times per week, to adjust the drug dosage. 30 minutes after final administration, each mouse in each group was injected intraperitoneally with 5% chicken erythrocyte suspension at a dose of 1.0 ml/mouse. Six hours after injection, animals were sacrificed by cervical dislocation, and received 2 ml physiological saline via peritoneal injection, while the abdomen of mice was gently massaged. Then, one pin hole was cut in the center of peritoneum, and washing water in peritoneal cavity was extracted, dropped on microscope slide, and cultured for 30 min in incubator at 37° C. The solution was washed with normal saline, fixed using methanol, and dyed by Giemsa staining. The numbers of chicken red blood cell phagocytized by 100 macrophages were observed under oil immersion lens. The phagotrophic percentage and the phagotrophic index were calculated according to the following formula, and results were shown in Table 15. [formula] [formula]

| Molecule | α value (X ± SD) [1] | K value (X ± SD) [1] | MDA(nmol/L) (x ± s) ([2]; TBA colorimetric method) | SOD(U/L) (x ± s) ([2]; xanthine oxidase method) | Phagotrophic index (X ± SD) [3] | Phagotrophic percentage (%, X ± SD) [3] |
| --- | --- | --- | --- | --- | --- | --- |
| O=C(/C=C/c1ccc(O)c(O)c1)O[C@@H]1C[C@](O)(C(=O)O)C[C@@H](O)[C@H]1O [Chologenic acid, Chlorogenic acid] | 3.94 ± 1.05 | 0.019 ± 0.011 | 27.14 ± 3.41 nmol/L | 218.73 ± 25.32 ^ U/L | 0.52 ± 0.07 | 36.58 ± 4.50 % |
| Mannatide [reference compound] | 4.43 ± 1.06 | 0.019 ± 0.013 | – | – | 0.57 ± 0.05***^ΔΔ | 40.32 ± 2.25***^ΔΔ % |
